Reference: patent publication US7432342B2, “Kinase anchor protein muteins, peptides thereof and related documents” (Sequenom, Inc., priority 2002, dated 2008)
Entries after “also recorded” stand apart in the source; their conditions may differ. Peptide text beside a SMILES is read from it. * marks the point of attachment. X1 = CN(C)c1ccc2c(c1)Oc1cc(N(C)C)ccc1C21OC(=O)c2cc(N3C(=O)CC(*)C3=O)ccc21

What was measured:
GFP-RIIα = target: T1, GFP-RIIα (Mus musculus, UniProt P12367); experiment: Co-localization with mitochondria-targeted Flag-tagged AKB domain constructs in 10T(1/2) cells (Example 10); format: cell-based; conditions: mutations of Table 7 in AKB domain of C-terminal 156 residues of mouse D-AKAP2, mitochondria-targeted
T1 construct: Full-length bovine RIα and mouse RIIα were fused with green fluorescent protein (GFP) by subcloning into pEGFPN1; expressed in transfected cells; host or cells: 10T(1/2) cells
Experimental: (§1) To test the ability of the mutations set forth in Table 7 [AKB(dual), AKB(RI), AKB(RII) and AKB(null)] to co-localize with selected PKA isoforms in cells, a flag-tagged AKB domain construct targeted to the mitochondria was prepared using the AKB domain and a mitochondria targeting sequence from D-AKAP1 as set forth in Example 3. The respective mutations were then incorporated into the AKB domain of D-AKAP2 to test for selectivity in the cell. The targeting constructs of the AKB domain were made by fusing the C-terminal 156 residues of mouse D-AKAP2 with the N-terminal mitochondrial-targeting domain of D-AKAP1 (residues 1-30 of D-AKAP1a). After adding a flag tag to the C-terminus, the constructs were sub-cloned into the pCI vector (Promega, Madison, Wis.). The mutations of the AKB domain corresponding to those set forth in Table 7 herein were made with the QuickChange mutagenesis method (Makarova et al. (2000) Biotechniques, 29:970-972). Full-length bovine RIα and mouse RIIα were fused with green fluorescent protein (GFP) by subcloning into pEGFPN1 (Clontech, Palo Alto, Calif.). Equal amounts of the targeting constructs and either GFP-RIα or GFP-RIIα constructs were co-transfected into 10T(1/2) cells using Lipofectamin (Invitrogen, Carlsbad, Calif.). The AKB domain was detected by immuno-staining with monoclonal antibodies against the Flag-tag (Kodak, Rochester, N.Y.) followed by a rhodamine-conjugated secondary antibody (Jackson Lab, Bar Harbor, Me.). The cells were imaged using a radiance confocal microscope (BioRad, Hercules, Calif.).

full-length RIIα = target: T2, full-length RIIα (Mus musculus, UniProt P12367); experiment: Fluorescence anisotropy binding assay (Example 9); set-up: species or system murine; conditions: compared with the unsubstituted peptide
T2 construct: Full-length murine RIIα was expressed in E. coli BL21 (DE3); made in house; host or cells: E. coli BL21 (DE3)
Experimental: (§2) Each peptide was fluorescently labeled using a 25 mM solution of tetramethylrhodamine-5-maleimide (catalog number T-6027; Molecular Probes, Eugene, Oreg.) dissolved in DMSO. The peptides were labeled by incubating with a three-fold molar excess of the label for 16 hr at 4° C. in 20 mM Tris, pH 7.0 and 1 mM tris-(2-carboxyethyl) phosphine, hydrochloride (TCEP) (non-thiol reducing agent, Molecular Probes). The sample was quenched with 1 mM, β-mercaptoethanol to bind to any unreacted maleimide and diluted with 0.1% TFA for purification by HPLC. The labeled peptides were resolved using a C18 column with a water/acetonitrile gradient containing 0.1% TFA. The concentration of each peptide was determined by absorbance at 541 nm after diluting into 100% methanol and using an extinction coefficient of 91,000 M^−1 cm^−1 for absorbance of the rhodamine label at 541 nm (Molecular Probes Catalog). The peptides were stored at 4° C. in 50% acetonitrile.
(§3) Full-length murine RIIα was expressed in E. coli BL21 (DE3). Full-length bovine RIα was expressed in E. coli 222. The proteins were purified as previously described using a cAMP affinity resin (Hamuro et al. (2002) J. Mol. Biol., 321:703). The protein concentrations were determined using the following extinction coefficients at 280 nm, which were calculated using a standard concentration of protein calibrated using quantitative amino acid analysis: RIα 52,603 M^−1 cm^−1 and RIIα 62,456 M^−1 cm^−1. The proteins were stored at 4° C. in 50 mM MES pH 5.8, 50 mM NaCl, 2 mM EDTA, 2 mM EGTA, 2 mM DTT.
(§4) Binding of each fluorescently labeled peptide to the regulatory subunits was monitored using fluorescence anisotropy. RIα and RIIα were serially diluted beginning at 1 μM and 0.1 μM, respectively, into 10 mM HEPES pH 7.4, 0.15 M NaCl, 3 mM EDTA, 0.005% Surfactant P20 (Biacore) containing either 10 nM or 1 nM of fluorescently labeled peptide for RIα and RIIα, respectively. The samples were equilibrated for at least 1 hour at room temperature and fluorescence anisotropy monitored using a Fluoromax-2 (Jobin Yvon Horiba, SPEX Division, Edison, N.J.) equipped with Glan-Thompson polarizers. The rhodamine-labeled peptide was excited at 541 nm (5-10 nm bandpass) and emission monitored at 575 nm (5-10 nm bandpass). The anisotropy was calculated directly with the Fluoromax software using the following equation: r=(IVV−G*IVH)/(IVV+2G*IVH) (1) where r is the steady state anisotropy, IVV is the fluorescence intensity with the excitation and emission polarizers oriented in the vertical position (0° from normal), IVH is the fluorescence intensity with the excitation polarizer in the vertical position and the emission polarizer oriented in the horizontal position (90°) relative to the excitation polarizer, G is the monochromator grating factor which is equal to (IHV/IHH), with the first subscript indicating the position of the excitation polarizer and the second subscript indicating position of the emission polarizer. Three separate binding experiments were averaged and fit to a 1:1 binding model using the non-linear regression application in GraphPad Prism version 3.00 (GraphPad Software, San Diego, Calif.).

full-length RIα = target: T3, full-length RIα (Bos taurus, UniProt P00514); experiment: Fluorescence anisotropy binding assay (Example 9); set-up: species or system bovine; conditions: compared with the unsubstituted peptide
T3 construct: Full-length bovine RIα was expressed in E. coli 222; made in house; host or cells: E. coli 222
Experimental: as §2, §3, §4

GFP-RIα = target: T4, GFP-RIα (Bos taurus, UniProt P00514); experiment: Co-localization with mitochondria-targeted Flag-tagged AKB domain constructs in 10T(1/2) cells (Example 10); format: cell-based, bovine; conditions: mutations of Table 7 in AKB domain of C-terminal 156 residues of mouse D-AKAP2, mitochondria-targeted
T4 construct: Full-length bovine RIα and mouse RIIα were fused with green fluorescent protein (GFP) by subcloning into pEGFPN1; expressed in transfected cells; host or cells: 10T(1/2) cells
Experimental: as §1

T4 sequence (P00514 whole entry, the tested form may be a part): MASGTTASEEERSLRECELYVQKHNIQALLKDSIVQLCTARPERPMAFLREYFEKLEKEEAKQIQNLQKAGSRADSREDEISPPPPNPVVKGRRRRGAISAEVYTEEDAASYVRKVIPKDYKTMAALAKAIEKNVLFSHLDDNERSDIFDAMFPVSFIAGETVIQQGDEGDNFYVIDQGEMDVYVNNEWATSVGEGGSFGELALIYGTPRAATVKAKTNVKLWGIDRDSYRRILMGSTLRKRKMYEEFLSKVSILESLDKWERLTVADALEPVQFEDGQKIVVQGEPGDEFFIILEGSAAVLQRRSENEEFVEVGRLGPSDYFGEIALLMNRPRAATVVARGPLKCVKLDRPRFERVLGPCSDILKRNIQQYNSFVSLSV
T3 sequence (P00514 whole entry): as the sequence (P00514 whole entry, the tested form may be a part) above
T2 sequence (P12367 whole entry): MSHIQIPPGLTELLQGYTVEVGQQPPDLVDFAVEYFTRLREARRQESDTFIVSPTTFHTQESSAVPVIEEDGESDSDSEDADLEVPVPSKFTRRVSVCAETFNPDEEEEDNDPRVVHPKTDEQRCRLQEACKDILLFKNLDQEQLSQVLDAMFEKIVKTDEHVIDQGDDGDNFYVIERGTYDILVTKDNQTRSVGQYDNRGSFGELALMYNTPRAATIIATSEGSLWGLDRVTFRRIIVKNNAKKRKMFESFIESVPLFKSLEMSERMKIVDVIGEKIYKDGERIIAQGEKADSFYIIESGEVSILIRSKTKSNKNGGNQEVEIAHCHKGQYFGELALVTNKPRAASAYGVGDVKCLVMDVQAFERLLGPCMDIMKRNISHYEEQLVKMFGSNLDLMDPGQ
T1 sequence (P12367 whole entry, the tested form may be a part): as the sequence (P12367 whole entry) above

| binding to RIIα, in words (full-length RIIα) | binding to RIα, in words (full-length RIα) | Structure (SMILES) | recruitment of GFP-RIIα to the mitochondria (GFP-RIIα) | recruitment of GFP-RIα to the mitochondria (GFP-RIα) | binding to RIIα, in words (full-length RIIα; listed as SEQ ID NO:103) | binding to RIα, in words (full-length RIα; listed as SEQ ID NO:103) |
| --- | --- | --- | --- | --- | --- | --- |
| did not affect binding to RIIα | dramatically affected binding to RIα | CC[C@H](C)[C@H](NC(=O)[C@H](CCCCN)NC(=O)[C@H](Cc1c[nH]c2ccccc12)NC(=O)[C@H](CC(C)C)NC(=O)[C@H](CC(C)C)NC(=O)[C@H](CCC(=O)O)NC(=O)[C@H](CCC(=O)O)NC(=O)[C@H](CCC(N)=O)NC(=O)[C@H](C)NC(=O)[C@H](CCC(=O)O)NC(=O)[C@H](CC(=O)O)NC(=O)[C@@H](NC(=O)[C@H](CC(N)=O)NC(=O)CNC(=O)[C@H](CCC(N)=O)NC(=O)[C@@H](N)C(C)C)[C@@H](C)O)C(=O)N[C@@H](C)C(=O)N[C@@H](CCCCN)C(=O)N[C@@H](CCSC)C(=O)N[C@H](C(=O)N[C@H](C(=O)N[C@@H](CO)C(=O)N[C@@H](CC(=O)O)C(=O)N[C@H](C(=O)N[C@@H](CCSC)C(=O)N[C@@H](CCC(N)=O)C(=O)N[C@@H](CCC(N)=O)C(=O)N[C@@H](CSC1CC(=O)N(c2ccc3c(c2)C(=O)OC32c3ccc(N(C)C)cc3Oc3cc(N(C)C)ccc32)C1=O)C(N)=O)C(C)C)C(C)C)[C@@H](C)CC (stereo partly shown) [AKB (RII)] (H-VQGNTDEAQEELLWKIAKMIVSDVMQQC(X1)-NH2; N-terminus assumed) | recruited RII to the mitochondria | incapable of recruiting GFP-RI | – | – |
| – | – | CC[C@H](C)[C@H](NC(=O)[C@H](CCCCN)NC(=O)[C@H](Cc1c[nH]c2ccccc12)NC(=O)[C@H](C)NC(=O)[C@H](CC(C)C)NC(=O)[C@H](CCC(=O)O)NC(=O)[C@H](CCC(=O)O)NC(=O)[C@H](CCC(N)=O)NC(=O)[C@H](C)NC(=O)[C@H](CCC(=O)O)NC(=O)[C@H](CC(=O)O)NC(=O)[C@@H](NC(=O)[C@H](CC(N)=O)NC(=O)CNC(=O)[C@H](CCC(N)=O)NC(=O)[C@@H](N)C(C)C)[C@@H](C)O)C(=O)N[C@@H](C)C(=O)N[C@@H](CCCCN)C(=O)N[C@@H](CCSC)C(=O)N[C@H](C(=O)N[C@H](C(=O)N[C@@H](CO)C(=O)N[C@@H](CC(=O)O)C(=O)N[C@H](C(=O)N[C@@H](CCSC)C(=O)N[C@@H](CCC(N)=O)C(=O)N[C@@H](CCC(N)=O)C(=O)N[C@@H](CSC1CC(=O)N(c2ccc3c(c2)C(=O)OC32c3ccc(N(C)C)cc3Oc3cc(N(C)C)ccc32)C1=O)C(N)=O)C(C)C)C(C)C)[C@@H](C)CC (stereo partly shown) [AKB (dual)] (H-VQGNTDEAQEELAWKIAKMIVSDVMQQC(X1)-NH2; N-terminus assumed) | able to recruit both GFP-RIα and GFP-RIIα to the mitochondria | able to recruit both GFP-RIα and GFP-RIIα to the mitochondria | – | – |
| could not be detected | bound very poorly | CC[C@H](C)[C@H](NC(=O)[C@H](CCCCN)NC(=O)[C@H](Cc1c[nH]c2ccccc12)NC(=O)[C@H](C)NC(=O)[C@H](CC(C)C)NC(=O)[C@H](CCC(=O)O)NC(=O)[C@H](CCC(=O)O)NC(=O)[C@H](CCC(N)=O)NC(=O)[C@H](C)NC(=O)[C@H](CCC(=O)O)NC(=O)[C@H](CC(=O)O)NC(=O)[C@@H](NC(=O)[C@H](CC(N)=O)NC(=O)CNC(=O)[C@H](CCC(N)=O)NC(=O)[C@@H](N)C(C)C)[C@@H](C)O)C(=O)N[C@@H](CCC(=O)O)C(=O)N[C@@H](CCCCN)C(=O)N[C@@H](CCSC)C(=O)N[C@H](C(=O)N[C@@H](Cc1c[nH]c2ccccc12)C(=O)N[C@@H](CO)C(=O)N[C@@H](CC(=O)O)C(=O)N[C@H](C(=O)N[C@@H](CCSC)C(=O)N[C@@H](CCC(N)=O)C(=O)N[C@@H](CCC(N)=O)C(=O)N[C@@H](CSC1CC(=O)N(c2ccc3c(c2)C(=O)OC32c3ccc(N(C)C)cc3Oc3cc(N(C)C)ccc32)C1=O)C(N)=O)C(C)C)[C@@H](C)CC (stereo partly shown) [AKB (null)] (H-VQGNTDEAQEELAWKIEKMIWSDVMQQC(X1)-NH2; N-terminus assumed) | could not co-localize either GFP-RIα or RIIα | could not co-localize either GFP-RIα or RIIα | – | – |

| Structure (SMILES) | binding to RIIα, in words (full-length RIIα) | binding to RIα, in words (full-length RIα) | recruitment of GFP-RIIα to the mitochondria (GFP-RIIα) | recruitment of GFP-RIα to the mitochondria (GFP-RIα) | binding to RIIα, in words (full-length RIIα; listed as SEQ ID NO:103) | binding to RIα, in words (full-length RIα; listed as SEQ ID NO:103) |
| --- | --- | --- | --- | --- | --- | --- |
| CC[C@H](C)[C@H](NC(=O)[C@H](CCCCN)NC(=O)[C@H](Cc1c[nH]c2ccccc12)NC(=O)[C@H](C)NC(=O)[C@H](CC(C)C)NC(=O)[C@H](CCC(=O)O)NC(=O)[C@H](CCC(=O)O)NC(=O)[C@@H](N)Cc1ccccc1)C(=O)N[C@@H](C)C(=O)N[C@@H](CCCCN)C(=O)N[C@@H](CCSC)C(=O)N[C@H](C(=O)N[C@@H](Cc1c[nH]c2ccccc12)C(=O)N[C@@H](CO)C(=O)N[C@@H](CC(=O)O)C(=O)N[C@H](C(=O)N[C@@H](Cc1ccccc1)C(=O)N[C@@H](CCC(N)=O)C(=O)N[C@@H](CCC(N)=O)C(=O)N[C@@H](CSC1CC(=O)N(c2ccc3c(c2)C(=O)OC32c3ccc(N(C)C)cc3Oc3cc(N(C)C)ccc32)C1=O)C(N)=O)C(C)C)[C@@H](C)CC (stereo partly shown) [PV-38] (H-FEELAWKIAKMIWSDVFQQC(X1)-NH2; N-terminus assumed) | substantially no binding; also recorded: further disrupting RIIα binding | dramatically enhanced binding to RIα | GFP-RII was not localized | only localized GFP-RI to the mitochondria | considerable reduction in affinity to RIIα | enhanced binding to RIα by a factor of ten |
